Data published in PubChem BioAssay (NCI).
Where “and” joins values, the source holds several entries; their conditions need not be identical. Equal values may be shown once.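 The compound was tested at five concentrations on cells cultured in 96-well plates, with a 48-hour exposure period. Here, GI50 denotes the concentration required for 50% inhibition of growth. TGI is the concentration that stops growth completely.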

Experiments:
Assay in all cases: growth of human tumour cells (NCI), 48 h
786-0 renal = test system: 786-0 renal
A498 renal = test system: A498 renal
A549 NSCLC = test system: A549 NSCLC
CCRF-CEM leukemia = test system: CCRF-CEM leukemia
HCT-116 colon = test system: HCT-116 colon
OVCAR-3 ovarian = test system: OVCAR-3 ovarian
SF-268 CNS = test system: SF-268 CNS
SK-MEL-2 melanoma = test system: SK-MEL-2 melanoma
U251 CNS = test system: U251 CNS
UACC-257 melanoma = test system: UACC-257 melanoma

| SMILES | GI50 (786-0 renal) | TGI (786-0 renal) | GI50 (A498 renal) | TGI (A498 renal) | GI50 (A549 NSCLC) | TGI (A549 NSCLC) | GI50 (CCRF-CEM leukemia) | GI50 (HCT-116 colon) | TGI (HCT-116 colon) | GI50 (OVCAR-3 ovarian) | TGI (OVCAR-3 ovarian) | GI50 (SF-268 CNS) | TGI (SF-268 CNS) | GI50 (SK-MEL-2 melanoma) | TGI (SK-MEL-2 melanoma) | GI50 (U251 CNS) | TGI (U251 CNS) | GI50 (UACC-257 melanoma) | TGI (UACC-257 melanoma) | TGI (CCRF-CEM leukemia) |
| --- | --- | --- | --- | --- | --- | --- | --- | --- | --- | --- | --- | --- | --- | --- | --- | --- | --- | --- | --- | --- |
| CCN(CC)CCC(=O)Nc1ccc(Cn2nnc3c2C(=O)c2nnn(Cc4ccc(NC(=O)CCN(CC)CC)cc4)c2C3=O)cc1 | 8.97 µM | > 72.3 µM | 2.45 µM | 9.49 µM | 1.51 µM | 3.4 µM | 0.24 µM | 0.283 µM | 1.12 µM | 0.265 µM | 0.778 µM | 0.338 µM | 1.51 µM | 0.22 µM | 0.571 µM | 0.254 µM | 0.688 µM | 1.01 µM | 2.79 µM | – |
| CC(C)(C)n1cc(-c2ccnc(NCCNS(=O)(=O)c3ccc(Br)cc3)c2)c(-c2cccc(O)c2)n1 | 1.72 µM | 3.82 µM | 1.37 µM | 3.19 µM | 2.19 µM | 6.5 µM | 2.69 µM | 1.44 µM | 2.86 µM | 1.85 µM | 3.68 µM | 2.04 µM | 5.96 µM | 1.93 µM | 3.99 µM | 1.53 µM | 3.29 µM | 1.93 µM | 4.76 µM | 18.2 µM |
| Cn1c(=O)n(-c2ccc(C(C)(C)C#N)cc2)c2c3cc(-c4cnc5ccccc5c4)ccc3ncc21 | < 0.0118 µM and 0.00542 µM and < 0.01 µM | – | < 0.01 µM and 0.00365 µM | 0.007 µM and 0.0306 µM | 0.0102 µM and 0.00594 µM and < 0.01 µM | – | < 0.01 µM and 0.00575 µM and < 0.0109 µM | 0.0312 µM and 0.00938 µM and 0.0298 µM | > 100 µM | < 0.01 µM and 0.00609 µM and 0.0101 µM | – | 0.0126 µM and 0.00657 µM and < 0.0109 µM | > 100 µM | 0.012 µM and 0.00598 µM and 0.0137 µM | 0.0505 µM and 0.292 µM and 0.0744 µM | < 0.0117 µM and 0.00599 µM and < 0.01 µM | 10.4 µM and > 10 µM and > 100 µM | < 0.0105 µM and 0.00672 µM and < 0.01 µM | 0.0493 µM and 0.436 µM and 0.0457 µM | > 100 µM |
| CN1C(=O)c2cc(Cl)nc3c(NC(=O)c4cccc(Cl)c4)c(Cl)c(NC(=O)c4cccc(Cl)c4)c1c23 | 2.69 µM | 7.96 µM | 3.49 µM | 12.7 µM | 4.14 µM | 14.8 µM | 2.01 µM | 1.31 µM | 2.69 µM | 1.92 µM | 3.57 µM | 1.83 µM | 3.73 µM | 2.19 µM | 4.35 µM | 1.82 µM | 3.24 µM | 1.91 µM | 3.55 µM | 5.59 µM |
| O=C(Oc1c(I)ccccc1=O)c1ccc([N+](=O)[O-])cc1 | – | > 100 µM | – | 17 µM | – | 63.2 µM | – | – | > 100 µM | – | 40.1 µM | – | 39.8 µM | – | 45.1 µM | – | 57.9 µM | – | 35.1 µM | > 100 µM |
| CN1CCCC1c1cccnc1.O=C(O)c1ccccc1O.O=C([O-])c1ccccc1[OH2+].O=C([O-])c1ccccc1[OH2+].O=C([O-])c1ccccc1[OH2+].[Mn+2] (stereo not given) | > 100 µM | > 100 µM | > 100 µM | > 100 µM | > 100 µM | > 100 µM | 23.3 µM | > 100 µM | > 100 µM | 11.4 µM | 39.3 µM | 22.3 µM | 73.4 µM | > 100 µM | > 100 µM | > 100 µM | > 100 µM | 37.6 µM | > 100 µM | > 100 µM |
| CC1(CC(=O)O)OC2CCCCCC2O1 (stereo not given) (tested in a mixture with another compound) | – | > 100 µM | – | > 100 µM | – | > 100 µM | – | – | > 100 µM | – | > 100 µM | – | > 100 µM | – | > 100 µM | – | > 100 µM | – | > 100 µM | 84.5 µM |
| COc1cc2ccn3c4cc(OC)c(OC)cc4cc3c2cc1OC | – | > 100 µM | – | > 100 µM | – | > 100 µM | – | – | > 100 µM | – | > 100 µM | – | > 100 µM | – | > 100 µM | – | > 100 µM | – | > 100 µM | > 100 µM |
| Cn1c(=O)c2c3oc(=O)cc(O)c3c(=O)n3c4ccccc4n(c1=O)c23 | – | > 100 µM | – | > 100 µM | – | > 100 µM | – | – | > 100 µM | – | 78.6 µM | – | > 100 µM | – | 69 µM | – | > 100 µM | – | 82.9 µM | > 100 µM |
| O=C(CCCCCCCCC(=O)OCC1OC(n2cnc3c(=O)[nH]cnc32)C(O)C1O)OCC1OC(n2cnc3c(=O)[nH]cnc32)C(O)C1O (stereo not given) | – | > 100 µM | – | > 100 µM | – | > 100 µM | – | – | > 100 µM | – | > 100 µM | – | > 100 µM | – | > 100 µM | – | > 100 µM | – | > 100 µM | > 100 µM |
| Cc1ccc(NCSc2ccc(Cl)cc2)cc1 | 6.53 µM | > 100 µM | 18.8 µM | > 100 µM | 9.8 µM | > 100 µM | 0.995 µM | 55.4 µM | > 100 µM | 9.22 µM | > 100 µM | 13.1 µM | > 100 µM | > 100 µM | > 100 µM | 17.8 µM | > 100 µM | > 100 µM | > 100 µM | > 100 µM |
| O=c1oc(-c2ccc(O)c(O)c2)cc2cc(O)cc(O)c12 | 39.6 µM | > 100 µM | 27.3 µM | 56.7 µM | 34.1 µM | > 100 µM | 3.39 µM | 29.8 µM | > 100 µM | 35.3 µM | > 100 µM | 32.4 µM | > 100 µM | 74.4 µM | > 100 µM | 48.5 µM | > 100 µM | 38 µM | > 100 µM | > 100 µM |
| COc1ccccc1Cn1cc2c(c1)-c1oncc1CC2 | 2.44 µM | 29.7 µM | 0.269 µM | 3.44 µM | 0.825 µM | > 75 µM | 0.29 µM | 0.39 µM | 13.6 µM | 0.307 µM | 0.888 µM | 1.21 µM | > 75.1 µM | 4.43 µM | 72.7 µM | 0.503 µM | 39 µM | 10.4 µM | > 63.6 µM | – |
| COc1cc[nH]c1/C=C1\C(=O)Nc2ccc(F)c(C#CC3(O)CCOCC3)c21 | 0.824 µM | > 25 µM | 0.573 µM | 1.67 µM | 0.536 µM | 2.25 µM | 0.713 µM | 0.538 µM | > 25 µM | 0.911 µM | 2.25 µM | 0.714 µM | 2.03 µM | 0.47 µM | 2.14 µM | 0.519 µM | 5.43 µM | 0.749 µM | 2.76 µM | 1.86 µM |
| COC(=O)/C(=N\NC(=O)c1ccccc1O)C(C#N)c1ccc(Cl)cc1 (stereo not given) | – | > 100 µM | – | > 100 µM | – | > 100 µM | – | – | > 100 µM | – | > 100 µM | – | > 100 µM | – | > 100 µM | – | > 100 µM | – | > 100 µM | > 100 µM |
